This note sets out measurements from ChEMBL document CHEMBL6071152, “Design, synthesis, and biological evaluation of oridonin derivatives as novel NLRP3 inflammasome inhibitors for the treatment of acute lung injury” (Eur J Med Chem, 2024).

Data set [1] concerns Mus musculus. As to the kind of experiment: Anti-inflammatory activity against LPS-stimulated acute lung injury C57BL/6 mouse model assessed as decrease in TNF-alpha level in BALF at 0.1 to 1 mg/kg, ip treated for 3 days and on third day administered with LPS at 30 mins post-compound challenge and measured after 12 hrs by ELISA. In kind it is functional, organism-based. The conditions noted are these: dose 0.1-1 mg/kg, time 3.5 day. On the technique in general: In an ELISA, binding on a coated surface is turned into a signal by an enzyme label.

For data set [2], the target named is NACHT, LRR and PYD domains-containing protein 3 (Mus musculus) (UniProt Q8R4B8). As to the kind of experiment: Inhibition of NLRP3 inflammasome activation in ICR mouse BMDM assessed as inhibition of LPS/ATP-stimulated caspase-1 expression in cell supernatant treated for 3 hrs with LPS followed by incubation with compound for 1 hr and later stimulated with ATP for 0.5 hrs by western blot analysis. It is filed as cell-based. The conditions noted are these: dose 0.2-5 µM, time 1.5 hrs. On the technique in general: A western blot detects proteins with antibodies after separation by electrophoresis.

The target is the same in data set [3]. Description: Inhibition of NLRP3 inflammasome activation in ICR mouse BMDM assessed as inhibition of LPS/nigericin-stimulated IL-1 beta secretion in cell supernatant at 1 uM treated for 3 hrs with LPS followed by incubation with compound for 1 hr and later stimulated with nigericin for 0.5 hrs by ELISA. It is filed as cell-based. Particulars: time 1.5 hrs.

Data set [4] has the same target. As to the kind of experiment: Inhibition of NLRP3 inflammasome priming in ICR mouse BMDM assessed as inhibition of NLRP3 protein expression in cell lysate at 0.2 to 5 uM treated for 3 hrs with LPS followed by incubation with compound for 1 hr and later stimulated with ATP for 0.5 hrs by western blot analysis. In kind it is subcellular. The conditions noted are these: dose 0.2-5 µM, time 1.5 hrs.

For data set [5] the target is unchanged. As to the kind of experiment: Inhibition of NLRP3 inflammasome priming in ICR mouse BMDM assessed as inhibition of LPS/ATP-stimulated TNF-alpha secretion in cell supernatant at 0.2 to 5 uM treated for 3 hrs with LPS followed by incubation with compound for 1 hr and later stimulated with ATP for 0.5 hrs by ELISA. Particulars: dose 0.2-5 µM, time 1.5 hrs. In kind it is cell-based.

The target is the same in data set [6]. As to the kind of experiment: Inhibition of NLRP3 inflammasome activation in ICR mouse BMDM assessed as inhibition of LPS/ATP-stimulated IL-1 beta expression in cell supernatant at 1 uM treated for 3 hrs with LPS followed by incubation with compound for 1 hr and later stimulated with ATP for 0.5 hrs by western blot analysis. Particulars: time 1.5 hrs. It is filed as cell-based.

The target is the same in data set [7]. As to the kind of experiment: Inhibition of NLRP3 inflammasome priming in ICR mouse BMDM assessed as inhibition of pro-IL-1 beta protein expression in cell lysate at 1 uM treated for 3 hrs with LPS followed by incubation with compound for 1 hr and later stimulated with ATP for 0.5 hrs by western blot analysis. Particulars: time 1.5 hrs. It is filed as subcellular.

For data set [8] the target is unchanged. As to the kind of experiment: Inhibition of NLRP3 inflammasome activation in ICR mouse BMDM assessed as inhibition of LPS/MSU-stimulated caspase-1 expression in cell supernatant at 1 uM treated for 3 hrs with LPS followed by incubation with compound for 1 hr and later stimulated with MSU for 4 hrs by western blot analysis. It is filed as cell-based. The conditions noted are these: time 5.0 hrs.

Data set [9] has the same target. Description: Inhibition of NLRP3 inflammasome activation in ICR mouse BMDM assessed as inhibition of LPS/ATP-stimulated IL-1 beta expression in cell supernatant treated for 3 hrs with LPS followed by incubation with compound for 1 hr and later stimulated with ATP for 0.5 hrs by western blot analysis. In kind it is cell-based. Particulars: dose 0.2-5 µM, time 1.5 hrs.

Data set [10] addresses NACHT, LRR and PYD domains-containing protein 3 (Mus musculus, UniProt Q8R4B8). As to the kind of experiment: Inhibition of NLRP3 inflammasome activation in ICR mouse BMDM assessed as inhibition of LPS/ATP-stimulated IL-1 beta production in cell supernatant treated for 3 hrs with LPS followed by incubation with compound for 1 hr and later stimulated with ATP for 0.5 hrs by ELISA. In kind it is cell-based.

Data set [11] deals with NACHT, LRR and PYD domains-containing protein 3 (Mus musculus) (UniProt Q8R4B8). As to the kind of experiment: Inhibition of NLRP3 inflammasome activation in ICR mouse BMDM assessed as inhibition of LPS/nigericin-stimulated caspase-1 expression in cell supernatant at 1 uM treated for 3 hrs with LPS followed by incubation with compound for 1 hr and later stimulated with nigericin for 0.5 hrs by western blot analysis. In kind it is cell-based. The conditions noted are these: time 1.5 hrs.

The test system of data set [12] is Mus musculus. Description: Anti-inflammatory activity against LPS-stimulated acute lung injury C57BL/6 mouse model assessed as decrease in IL-18 mRNA expression in right lung at 0.1 to 1 mg/kg, ip treated for 3 days and on third day administered with LPS at 30 mins post-compound challenge and measured after 12 hrs by RT-qPCR analysis. Particulars: dose 0.1-1 mg/kg, time 3.5 day. It is filed as functional, organism-based.

In data set [13] the test system is Mus musculus. Description: Anti-inflammatory activity against LPS-stimulated acute lung injury C57BL/6 mouse model assessed as decrease in caspase-1 expression in right lung at 0.1 to 10 mg/kg, ip treated for 3 days and on third day administered with LPS at 30 mins post-compound challenge and measured after 12 hrs by western blot analysis. It is filed as functional, organism-based. Particulars: dose 0.1-10 mg/kg, time 3.5 day.

In data set [14] the test system is Mus musculus. As to the kind of experiment: Anti-inflammatory activity against LPS-stimulated acute lung injury C57BL/6 mouse model assessed as decrease in IL-1 beta expression in right lung at 0.1 to 10 mg/kg, ip treated for 3 days and on third day administered with LPS at 30 mins post-compound challenge and measured after 12 hrs by western blot analysis. In kind it is functional, organism-based. The conditions noted are these: dose 0.1-10 mg/kg, time 3.5 day.

Data set [15] addresses NLR family CARD domain-containing protein 4 (Mus musculus) (UniProt Q3UP24). As to the kind of experiment: Inhibition of NLRC4 inflammasome activation in ICR mouse BMDM assessed as inhibition of FLA-ST-stimulated caspase-1 expression in cell supernatant at 1 uM treated for 3 hrs with LPS followed by incubation with compound for 1 hr and later stimulated with FLA-ST for 2 hrs by western blot analysis. In kind it is cell-based.

Data set [16] deals with NACHT, LRR and PYD domains-containing protein 3 (Mus musculus) (UniProt Q8R4B8). Description: Inhibition of NLRP3 inflammasome priming in ICR mouse BMDM assessed as inhibition of pro-caspase-1 protein expression in cell lysate at 0.2 to 5 uM treated for 3 hrs with LPS followed by incubation with compound for 1 hr and later stimulated with ATP for 0.5 hrs by western blot analysis. It is filed as subcellular. The conditions noted are these: dose 0.2-5 µM, time 1.5 hrs.

In data set [17] the test system is Mus musculus. As to the kind of experiment: Anti-inflammatory activity against LPS-stimulated acute lung injury C57BL/6 mouse model assessed as decrease in IL-6 mRNA expression in right lung at 0.1 to 1 mg/kg, ip treated for 3 days and on third day administered with LPS at 30 mins post-compound challenge and measured after 12 hrs by RT-qPCR analysis. It is filed as functional, organism-based. The conditions noted are these: dose 0.1-1 mg/kg, time 3.5 day. On the technique in general: In qPCR the cycle at which signal appears reflects the starting amount.

The target of data set [18] is NACHT, LRR and PYD domains-containing protein 3 (Mus musculus) (UniProt Q8R4B8). Description: Inhibition of NLRP3 inflammasome priming in ICR mouse BMDM assessed as inhibition of ASC protein expression in cell lysate at 0.2 to 5 uM treated for 3 hrs with LPS followed by incubation with compound for 1 hr and later stimulated with ATP for 0.5 hrs by western blot analysis. In kind it is subcellular. Particulars: dose 0.2-5 µM, time 1.5 hrs.

Data set [19] is described as follows: Cytotoxicity against ICR mouse BMDM assessed as reduction in cell viability incubated for 24 hrs by CCK8 assay. Particulars: BMDM (bone marrow-derived macrophages). It is filed as toxicity, cell-based.

Activity calls are given as the source filed them. The rule behind the calls is not given here.

Sequence of NACHT, LRR and PYD domains-containing protein 3 (Mus musculus) (Q8R4B8 whole entry, the tested form may be a part): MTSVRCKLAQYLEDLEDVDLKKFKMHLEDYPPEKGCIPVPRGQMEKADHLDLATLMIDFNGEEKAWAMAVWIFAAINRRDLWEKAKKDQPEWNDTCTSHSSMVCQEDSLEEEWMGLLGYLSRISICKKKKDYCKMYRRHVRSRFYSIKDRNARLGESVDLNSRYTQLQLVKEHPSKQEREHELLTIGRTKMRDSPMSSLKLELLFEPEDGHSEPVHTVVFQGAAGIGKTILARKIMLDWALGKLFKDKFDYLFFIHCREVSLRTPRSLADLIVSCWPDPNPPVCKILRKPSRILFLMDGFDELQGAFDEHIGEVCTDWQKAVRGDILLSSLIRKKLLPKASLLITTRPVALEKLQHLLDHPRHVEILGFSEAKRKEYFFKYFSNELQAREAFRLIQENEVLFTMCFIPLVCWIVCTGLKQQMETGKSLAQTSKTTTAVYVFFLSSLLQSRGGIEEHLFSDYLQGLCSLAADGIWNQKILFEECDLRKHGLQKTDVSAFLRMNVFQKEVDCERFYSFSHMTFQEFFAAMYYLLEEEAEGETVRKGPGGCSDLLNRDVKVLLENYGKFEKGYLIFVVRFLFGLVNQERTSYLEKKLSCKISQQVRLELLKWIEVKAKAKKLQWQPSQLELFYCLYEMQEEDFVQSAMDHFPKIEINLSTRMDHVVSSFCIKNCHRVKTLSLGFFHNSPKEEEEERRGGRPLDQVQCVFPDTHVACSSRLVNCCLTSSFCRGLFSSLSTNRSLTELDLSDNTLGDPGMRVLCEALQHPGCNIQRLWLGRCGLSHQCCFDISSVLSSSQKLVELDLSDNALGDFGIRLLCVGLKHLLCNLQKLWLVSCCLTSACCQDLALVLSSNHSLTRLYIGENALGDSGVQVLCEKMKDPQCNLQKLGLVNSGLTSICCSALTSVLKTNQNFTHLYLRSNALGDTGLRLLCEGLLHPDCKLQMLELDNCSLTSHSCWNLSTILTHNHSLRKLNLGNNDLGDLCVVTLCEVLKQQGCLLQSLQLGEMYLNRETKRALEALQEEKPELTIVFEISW
Sequence of NLR family CARD domain-containing protein 4 (Mus musculus) (Q3UP24 whole entry, the tested form may be a part): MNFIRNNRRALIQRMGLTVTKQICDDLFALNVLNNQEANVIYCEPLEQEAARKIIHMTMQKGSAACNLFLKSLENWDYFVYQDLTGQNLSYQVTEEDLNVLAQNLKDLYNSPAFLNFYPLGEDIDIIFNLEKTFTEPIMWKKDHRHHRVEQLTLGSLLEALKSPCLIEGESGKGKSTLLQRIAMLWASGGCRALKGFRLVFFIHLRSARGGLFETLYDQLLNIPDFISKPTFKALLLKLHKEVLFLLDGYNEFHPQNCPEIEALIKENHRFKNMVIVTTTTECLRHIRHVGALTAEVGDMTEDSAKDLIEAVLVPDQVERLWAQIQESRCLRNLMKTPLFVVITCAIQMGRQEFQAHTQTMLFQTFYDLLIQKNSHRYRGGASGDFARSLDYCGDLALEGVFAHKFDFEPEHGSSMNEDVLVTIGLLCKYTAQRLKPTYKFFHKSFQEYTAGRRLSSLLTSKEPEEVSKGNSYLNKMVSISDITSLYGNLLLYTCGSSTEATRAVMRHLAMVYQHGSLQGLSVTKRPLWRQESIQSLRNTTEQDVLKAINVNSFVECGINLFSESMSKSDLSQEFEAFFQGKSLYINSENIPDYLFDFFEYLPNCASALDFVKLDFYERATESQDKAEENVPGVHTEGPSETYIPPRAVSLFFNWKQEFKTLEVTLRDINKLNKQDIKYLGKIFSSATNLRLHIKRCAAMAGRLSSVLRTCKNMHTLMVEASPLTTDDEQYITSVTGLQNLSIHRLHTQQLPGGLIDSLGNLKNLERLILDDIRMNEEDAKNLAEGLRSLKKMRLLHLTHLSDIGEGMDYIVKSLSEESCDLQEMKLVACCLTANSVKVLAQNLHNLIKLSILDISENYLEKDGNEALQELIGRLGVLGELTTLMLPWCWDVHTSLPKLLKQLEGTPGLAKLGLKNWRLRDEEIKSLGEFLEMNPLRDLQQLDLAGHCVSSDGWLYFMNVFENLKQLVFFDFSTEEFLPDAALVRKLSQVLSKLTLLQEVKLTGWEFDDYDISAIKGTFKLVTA
Sequence of NACHT, LRR and PYD domains-containing protein 3 (Q8R4B8 whole entry, the tested form may be a part): as the sequence (Q8R4B8 whole entry, the tested form may be a part) above

In general, IC50 refers to the midpoint of a concentration-inhibition curve. Consider `C=C1C(=O)[C@]23[C@H](OC(=O)Nc4ccc(F)cc4)[C@H]1CC[C@H]2[C@]12C=CCC(C)(C)[C@H]1[C@H](O)[C@@]3(O)OC2`, for which the Activity entry in the data set with Mus musculus [1], with Mus musculus [12] and with Mus musculus [17] was “Dose-Dependent Effect” each time. In addition, the inhibition result in [2] and in data set [9] was “Dose-Dependent Effect” each time. Also, the inhibition entry in data set [3], in data set [6], in data set [8] and in [11] was “Active” each time. Further, the inhibition entry in data set [4], in data set [5], in data set [7], in data set [15], in data set [16] and in [18] was “inactive” each time. Moreover, the IC50 in [10] was 41.8 nM. The result in the data set on Mus musculus [13] and with Mus musculus [14] was Active. Further, in data set [19], the 50% inhibitory concentration (IC50) at 24 h was above 10 µM.
